Values of other authors, collected in patent publication US10927398B2, “Compositions for CYP450 phenotyping using saliva samples” (Concordia University, Inc., priority 2015, dated 2021).
Like-named read-outs stand apart in the source and are kept apart here.

Experiments:
plasma protein = conditions: cited from earlier work
[1] = cited from earlier work
[2] = cited from earlier work; remark: listed apart in the source
[3] = Table of Exemplary Drugs, CYP3A4
[4] = Table of Exemplary Drugs, CYP2C19
[5] = Table of Exemplary Drugs, CYP2D6
[6] = Table of Exemplary Drugs, CYP1A2
[7] = Table of Exemplary Drugs, CYP2C9

## CCc1ccc(CCOc2ccc(CC3SC(=O)NC3=O)cc2)nc1 (stereo not drawn) [Pioglitazone]
Plasma protein; [3]
  PLASMA PROTEIN BINDING: >99%
[1]; [3]
  ORAL BIOAVAILABILITY: 50%
[2]; [3]
  HALF-LIFE: 3 to 7 h

## O=C(C1CCCCC1)N1CC(=O)N2CCc3ccccc3C2C1 (stereo not drawn) [Praziquantel (Biltricide), Praziquantel]
Plasma protein; [3]
  PLASMA PROTEIN BINDING: 80%
[1]; [3]
  ORAL BIOAVAILABILITY: 80%
[2]; [3]
  HALF-LIFE: 0.8 to 3 h

## CCC1(c2ccccc2)C(=O)NCNC1=O [Primidone]
Plasma protein; [4]
  PLASMA PROTEIN BINDING: 20-30% ^
[1]; [4]
  ORAL BIOAVAILABILITY: 90-100%
[2]; [4]
  HALF-LIFE: 3.3 to 7 h

## CC(=O)[C@H]1CC[C@H]2[C@@H]3CCC4=CC(=O)CC[C@]4(C)[C@H]3CC[C@]12C [Progesterone]
Plasma protein; [4]
  PLASMA PROTEIN BINDING: 95-99% ^
[1]; [4]
  ORAL BIOAVAILABILITY: 10-15%
[2]; cell marked PV, Table of Exemplary Drugs, CYP2C19
  HALF-LIFE: PV: 5-20 min

## CC(CN1c2ccccc2Sc2ccccc21)N(C)C (stereo not drawn) [Promethazine]
Plasma protein; [5]
  PLASMA PROTEIN BINDING: 93%
[1]; [5]
  ORAL BIOAVAILABILITY: 88%
[2]; [5]
  HALF-LIFE: 16 to 19 h

## CCC(=O)O[C@](Cc1ccccc1)(c1ccccc1)[C@H](C)CN(C)C [Propoxyphene (Darvon), Propoxyphene]
Plasma protein; [3]
  PLASMA PROTEIN BINDING: 78%
[1]; [3]
  ORAL BIOAVAILABILITY: 40%
[2]; [3]
  HALF-LIFE: 6 to 12 h

## Fc1ccccc1C1=NCC(=S)N(CC(F)(F)F)c2ccc(Cl)cc21 [Quazepam (Doral), Quazepam]
Plasma protein; [3]
  PLASMA PROTEIN BINDING: >95%
[1]; [3]
  ORAL BIOAVAILABILITY: 29-35%
[2]; [3]
  HALF-LIFE: 25 to 41 h

## COc1ccccc1OCC(O)CN1CCN(CC(=O)Nc2c(C)cccc2C)CC1 (stereo not drawn) [Ranulazine (Ranexa), Ranulazine]
Plasma protein; [3]
  PLASMA PROTEIN BINDING: 62%
[1]; [3]
  ORAL BIOAVAILABILITY: 55%
[2]; [3]
  HALF-LIFE: 7 to 8.9 h

## CCN1CCC[C@H]1CNC(=O)c1c(OC)ccc(Br)c1OC [Remoxipride]
Plasma protein; [5]
  PLASMA PROTEIN BINDING: 5-6%
[1]; [5]
  ORAL BIOAVAILABILITY: 96%
[2]; [5]
  HALF-LIFE: 3 to 6 h

## CCOc1cc(CC(=O)N[C@@H](CC(C)C)c2ccccc2N2CCCCC2)ccc1C(=O)O [Repaglinide (Prandin), Repaglinide]
Plasma protein; [3]
  PLASMA PROTEIN BINDING: >98%
[1]; [3]
  ORAL BIOAVAILABILITY: 56%
[2]; [3]
  HALF-LIFE: 1 h

## CCCN1CCCC[C@H]1C(=O)Nc1c(C)cccc1C [Ropivacaine]
Plasma protein; [6]
  PLASMA PROTEIN BINDING: 94%
[1]; cell marked IV, Table of Exemplary Drugs, CYP1A2
  ORAL BIOAVAILABILITY: 87-98% - IV
[2]; [6]
  HALF-LIFE: 5 to 7 h

## CC(C)CC(N(C)C)C1(c2ccc(Cl)cc2)CCC1 (stereo not drawn) [Sibutramine (Meridia), Sibutramine]
Plasma protein; [3]
  PLASMA PROTEIN BINDING: 97%
[1]; [3]
  ORAL BIOAVAILABILITY: 77%
[2]; [3]
  HALF-LIFE: 1.1 h

## CO[C@H]1C[C@@H]2CC[C@@H](C)[C@@](O)(O2)C(=O)C(=O)N2CCCC[C@H]2C(=O)O[C@H]([C@H](C)C[C@@H]2CC[C@@H](O)[C@H](OC)C2)CC(=O)[C@H](C)/C=C(\C)[C@@H](O)[C@@H](OC)C(=O)[C@H](C)C[C@H](C)/C=C/C=C/C=C/1C [Sirolimus (Rapamune), Sirolimus]
Plasma protein; [3]
  PLASMA PROTEIN BINDING: 92%
[1]; [3]
  ORAL BIOAVAILABILITY: 14-27%
[2]; [3]
  HALF-LIFE: 61.3 to 72.3 h

## O=C(O[C@H]1CN2CCC1CC2)N1CCc2ccccc2[C@@H]1c1ccccc1 [Solifenacin (Vesicare), Solifenacin]
Plasma protein; plasma
  PLASMA PROTEIN BINDING: 98%
[1]; in vivo, po
  ORAL BIOAVAILABILITY: 90%
[2]; in vivo
  HALF-LIFE: 45 to 68 h

## CC(C(=O)O)c1ccc(C(=O)c2cccs2)cc1 (stereo not drawn) [Suprofen]
Plasma protein; [7]
  PLASMA PROTEIN BINDING: >99%
[1]; [7]
  ORAL BIOAVAILABILITY: 92%
[2]; [7]
  HALF-LIFE: 2 to 4 h

## CCCCCc1cc(O)c2c(c1)OC(C)(C)[C@@H]1CCC(C)=C[C@@H]21 [THC]
Plasma protein; [7]
  PLASMA PROTEIN BINDING: 97-99% ^
[1]; [7]
  ORAL BIOAVAILABILITY: 10-35%
[2]; [7]
  HALF-LIFE: 1.6 to 59 h

## Nc1c2c(nc3ccccc13)CCCC2 [Tacrine]
Plasma protein; plasma
  PLASMA PROTEIN BINDING: 55%
[1]; in vivo, po
  ORAL BIOAVAILABILITY: 2.4-36%
[2]; in vivo
  HALF-LIFE: 2 to 4 h

## C=CC[C@@H]1/C=C(\C)C[C@H](C)C[C@H](OC)[C@H]2O[C@@](O)(C(=O)C(=O)N3CCCC[C@H]3C(=O)O[C@H](/C(C)=C/[C@@H]3CC[C@@H](O)[C@H](OC)C3)[C@H](C)[C@@H](O)CC1=O)[C@H](C)C[C@@H]2OC [Tacrolimus (Prograf), Tacrolimus]
Plasma protein; [3]
  PLASMA PROTEIN BINDING: 99%
[1]; [3]
  ORAL BIOAVAILABILITY: 17-31%
[2]; [3]
  HALF-LIFE: 8.7 to 37.9 h

## CCOc1ccccc1OCCN[C@H](C)Cc1ccc(OC)c(S(N)(=O)=O)c1 [Tamsulosin (Flomax), Tamsulosin]
Plasma protein; [3]
  PLASMA PROTEIN BINDING: 94-99% ^
[1]; [3]
  ORAL BIOAVAILABILITY: >90%
[2]; [3]
  HALF-LIFE: 9 to 15 h

## CC[C@@H](c1cccc(O)c1)[C@@H](C)CN(C)C [Tapentadol]
Plasma protein; [7]
  PLASMA PROTEIN BINDING: 20%
Plasma protein; [4]
  PLASMA PROTEIN BINDING: 20%
Plasma protein; [5]
  PLASMA PROTEIN BINDING: 20%
[1]; [7]
  ORAL BIOAVAILABILITY: 32%
[1]; [4]
  ORAL BIOAVAILABILITY: 32%
[1]; [5]
  ORAL BIOAVAILABILITY: 32%
[2]; [7]
  HALF-LIFE: 4 to 5 h
[2]; [4]
  HALF-LIFE: 4 to 5 h
[2]; [5]
  HALF-LIFE: 4 to 5 h

## CN(C/C=C/C#CC(C)(C)C)Cc1cccc2ccccc12 [Terbinafine]
Plasma protein; [7]
  PLASMA PROTEIN BINDING: >99%
[1]; [7]
  ORAL BIOAVAILABILITY: 40%
[2]; [7]
  HALF-LIFE: 22 to 26 h

## C[C@]12CC[C@H]3[C@@H](CCC4=CC(=O)CC[C@@]43C)[C@@H]1CC[C@@H]2O [Testosterone]
Plasma protein; plasma
  PLASMA PROTEIN BINDING: 98%
[1]; in vivo, po
  ORAL BIOAVAILABILITY: Varies
[2]; in vivo
  HALF-LIFE (hrs): varies
